These results are taken from ChEMBL document CHEMBL3352543, “Synthesis and structure-activity relationship of novel cinnamamide derivatives as antidepressant agents” (Bioorg Med Chem Lett, 2014).

Data set [1] relates to Mus musculus. The data set can be described thus: Toxic CNS activity in C57BL/6 mouse assessed as locomotor activity by measuring exploratory activity counts at 10 mg/kg, ig by open-field test (reference value: 94.50 +/- 6.18 counts). Type of data set: toxicity, organism-based. Set-up: dose 10 mg/kg, route intragastric. The following applies: in vivo, po.
In data set [2] the test system is Mus musculus. The data set can be described thus: Antidepressant activity in C57BL/6 mouse assessed as decrease in immobility duration at 10 mg/kg, ig by tail suspension test. The following applies: C57BL/6, Tail, po, route intragastric. The class given is functional.
A short description of data set [3]: Solubility in water. Type of data set: physicochemical. The following applies: buffer.
Data set [4] concerns Mus musculus. The data set is described as follows: Antidepressant activity in C57BL/6 mouse assessed as decrease in immobility duration at 10 mg/kg, ig by forced swim test. Type of data set: functional. The following applies: C57BL/6, po, route intragastric.
The subject of data set [5] is Mus musculus. The data set can be described thus: Antidepressant activity in ig dosed C57BL/6 mouse assessed as decrease in immobility duration by tail suspension test. The class given is functional, organism-based.
The subject of data set [6] is Mus musculus. The data set is described as follows: Antidepressant activity in ig dosed C57BL/6 mouse assessed as decrease in immobility duration by forced swim test. The class given is functional, organism-based.
The test system of data set [7] is Mus musculus. The data set can be described thus: Antidepressant activity in C57BL/6 mouse assessed as decrease in immobility duration at 2.5 mg/kg, ig by forced swim test. The following applies: C57BL/6, po, route intragastric. Type of data set: functional.
Data set [8] has as its system Mus musculus. The data set can be described thus: Antidepressant activity in C57BL/6 mouse assessed as decrease in immobility duration at 5 mg/kg, ig by forced swim test. Type of data set: functional. The following applies: C57BL/6, po, route intragastric.

For orientation: inhibition in vivo means the share of the control response that was lost under treatment. For `O=C(c1cc2c(c(C(F)(F)F)c1)OCO2)N1CCCCC1`, in the data set with Mus musculus [1], the Activity is given as 87.4. Further, in the data set on Mus musculus [2], the inhibition in vivo at 10 mg/kg amounted to 37.1%.
On to `O=C(/C=C/c1cc2c(c(C(F)(F)F)c1)OCO2)N1CCNCC1`, for which the Activity in the data set on Mus musculus [1] is given as 91.54. In addition, the inhibition in vivo at 10 mg/kg in the data set on Mus musculus [2] is 21.8%. Besides, the solubility entry in data set [3] is “soluble”.
For the compound `CC(C)CNC(=O)/C=C/c1ccc2c(c1)OCO2` [FOGARAMIDE], in the data set on Mus musculus [1], the Activity worked out at 89.24. The inhibition in vivo at 10 mg/kg in the data set on Mus musculus [2] was 13.2%.
Take `O=C(/C=C/c1cc2c(c(C(F)(F)F)c1)OCO2)N1CCCCC1`: the Activity with Mus musculus [1] is recorded as 83.6. Further, in the data set on Mus musculus [2], the inhibition in vivo at 10 mg/kg was found to be 31.5%.
On to `CC(C)CNC(=O)/C=C/c1cc(Cl)c2c(c1)OCO2`, for which the Activity in the data set with Mus musculus [1] is 94.75. Also, the inhibition in vivo at 10 mg/kg in the data set on Mus musculus [2] is 29.1%.
Consider `CNCCC(Oc1ccc(C(F)(F)F)cc1)c1ccccc1` (stereo not drawn) [FLUOXETINE], for which the Activity in the data set with Mus musculus [1] is 102. Also, the inhibition in vivo at 10 mg/kg with Mus musculus [2] was determined as 39.4%; with Mus musculus [4] it was 29%.
With `CC(C)CNC(=O)CCc1cc2c(c(C(F)(F)F)c1)OCO2`, the Activity in the data set on Mus musculus [1] stood at 86.6. Moreover, the inhibition in vivo at 10 mg/kg in the data set with Mus musculus [2] stood at 28.8%.
In the same order, the values of `CC(C)CNC(=O)c1cc2c(c(C(F)(F)F)c1)OCO2` are 93.2 and 33.1%.
Take `COc1cc(/C=C/C(=O)NCC(C)C)cc2c1OCO2`: the Activity in the data set on Mus musculus [1] came to 100.92. In addition, the inhibition in vivo at 10 mg/kg in the data set on Mus musculus [2] amounted to 11.7%.
For `CC(C)CNC(=O)/C=C/c1cc(I)c2c(c1)OCO2`, the Activity with Mus musculus [1] was determined as 94.42. The inhibition in vivo at 10 mg/kg with Mus musculus [2] was 15.1%.
With `CCN(CC)C(=O)/C=C/c1cc2c(c(C(F)(F)F)c1)OCO2`, the Activity in the data set with Mus musculus [1] was 95.3. Besides, the inhibition in vivo at 10 mg/kg in the data set on Mus musculus [2] is 40.2%.
With `CC(C)CNC(=O)/C=C/c1cc2c(c(C(F)(F)F)c1)OCO2`, the Activity with Mus musculus [1] was 99.4. Besides, the figures for the inhibition in vivo at 10 mg/kg in the data set with Mus musculus [2] and in the data set with Mus musculus [4] were 42.5% and 43.5%, respectively. Further, the inhibition entry in the data set on Mus musculus [5] and in the data set on Mus musculus [6] was “Dose-dependent effect” each time. Further, in the data set on Mus musculus [7], the inhibition in vivo at 2.5 mg/kg stood at 20.8%. Also, the inhibition in vivo at 5 mg/kg in the data set with Mus musculus [8] came to 34.4%.
`CC(C)CNC(=O)/C=C/c1cc2c(c([N+](=O)[O-])c1)OCO2`: the Activity in the data set on Mus musculus [1] stood at 98. For the same compound, the inhibition in vivo at 10 mg/kg with Mus musculus [2] worked out at 6.4%.
On to `CN(C)C(=O)/C=C/c1cc2c(c(C(F)(F)F)c1)OCO2`, for which the Activity in the data set on Mus musculus [1] stood at 84. The inhibition in vivo at 10 mg/kg with Mus musculus [2] came out at 12.6%.
Turning to `CN1CCN(C(=O)/C=C/c2cc3c(c(C(F)(F)F)c2)OCO3)CC1`, the Activity in the data set with Mus musculus [1] was 86.2. Also, the inhibition in vivo at 10 mg/kg with Mus musculus [2] worked out at 24%. Moreover, the solubility result in data set [3] is listed as “soluble”.
